# Source: paper PMC12057046, “Elucidation of short linear motif-based interactions of the MIT and rhodanese domains of the ubiquitin-specific protease 8” (Biology Direct, 2025)
# Biological target: T1, USP8 Rhod domain (Homo sapiens, UniProt P40818)
# T1 construct: USP8 Rhod (174–317) (UniProt: P40818); GST (cleaved yes); made in house; host or cells: Escherichia coli BL21-Gold (DE3)
# T1 sequence (P40818 174-317): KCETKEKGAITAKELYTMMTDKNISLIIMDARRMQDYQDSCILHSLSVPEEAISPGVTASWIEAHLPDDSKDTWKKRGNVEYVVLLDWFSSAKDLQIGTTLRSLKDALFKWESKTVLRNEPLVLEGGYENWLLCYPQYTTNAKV
# Test: Peptide-phage display-based deep mutational scanning (DMS), USP8 Rhod domain
# Format: binding
# Conditions: PSSM, library USP8_DMS, days 2,3; position 7
# Procedure: Four rounds of phage selections were carried out using the second generation human disorderome library or the constructed deep mutational scanning library. At least three individual replicates were used for each bait protein. 10 µg of GST-tagged proteins or GST control (diluted in PBS from the stock of proteins kept in the purification elution buffer) were immobilized in 100 µL PBS on a 96-well MaxiSorp (Nunc) plate overnight at 4 °C. The plates were incubated with blocking buffer (with 0.5% BSA in PBS) for 1 h at 4 °C followed by washing with 0.05% Tween 20 in PBS four times. The naïve phage library (10^11 CFU) was diluted in 1/5th volume PEG/NaCl (20% PEG-8000, 0.4 M NaCl) and 1X PBS, incubated on ice for 10 min and centrifuged at 10,000 [drawing 3] g for 10 min. The pellet was resuspended in the volume of PBS (100 µL/ well). The GST-coated control plate was incubated with 100 µL library per well in PBS for 1 h at 4 °C to remove non-specific binders. The supernatant was transferred to the target wells and incubated for 2 h at 4 °C. The wells were washed five times with 0.05% Tween 20 in PBS and the bound phages were eluted with 100 µL per well log-phase E. coli OmniMAX by incubating at 37° C while shaking. After 30 min, M13KO7 helper phages were added and incubated for an additional 45 min. The bacterial cultures were transferred to 1 mL 2YT supplemented with 100 µg/mL carbenicillin, 30 µg/mL kanamycin and 0.3 mM IPTG and grew overnight at 37 °C while shaking. The following day the cultures were centrifuged for 10 min at 2,000 [drawing 4] g, 4 °C. 1/10th volume of 10 [drawing 5] PBS was added to adjust the pH and heated at 65 °C for 10 min. The phage pools from each round were used as in-phages for the next round of selections.
# The samples were prepared for NGS as previously described. […] The PCR products were normalized with 25 µL Mag-bind Total Pure NGS beads (Omega Biotek) and 10 µL of each eluted sample (Qiagen Elution Buffer) was pooled and cleaned-up with a PCR purification kit (Qiagen). The PCR product was confirmed by 2% agarose electrophoresis and the band was extracted with QIAquick Gel extraction Kit (Qiagen) and eluted with 30 µL TE buffer. The dsDNA was quantified using QuantiT PicoGreen dsDNA Assay Kit (Thermo Fisher) and sent for NGS (Illumina MiSeq v3, 1 × 150 bp read setup, 20% PhiX, NGI SciLifeLab facility, Sweden). The NGS data were demultiplexed, adapter regions were trimmed and sequences with an average quality of at least 20 were translated to peptide sequences. The NGS data were analysed using custom Python scripts. The total read NGS counts for each selection experiment of each peptide sequence were compiled and annotated in PepTools (https://slim.icr.ac.uk/tools/peptools/). Since ProP-PD is in essence a competition assay, the possibility of the input phage library influencing the selection outcome was explored. […] Pearson correlation coefficient and p-value were calculated using Python’s SciPy library.
enrichment_relative_to_wt at position 7 (wt G),proportion of amino acid at position 7 (wt G),Substance
17,0.26,"KIAA1614_Q5VZ46_569_584 G7D (MERVLGDLSSPLRLLP; peptide 569-584; UniProt Q5VZ46 569-584, looked up, variant G7D)"
30,0.46,"KIAA1614_Q5VZ46_569_584 G7T (MERVLGTLSSPLRLLP; peptide 569-584; UniProt Q5VZ46 569-584, looked up, variant G7T)"
-7.58,0.00204,"KIAA1614_Q5VZ46_569_584 G7H (MERVLGHLSSPLRLLP; UniProt Q5VZ46 569-584, looked up, variant G7H)"
-172,8.98e-5,"KIAA1614_Q5VZ46_569_584 G7W (MERVLGWLSSPLRLLP; UniProt Q5VZ46 569-584, looked up, variant G7W)"
-1.8,0.0086,"KIAA1614_Q5VZ46_569_584 G7S (MERVLGSLSSPLRLLP; UniProt Q5VZ46 569-584, looked up, variant G7S)"
1.68,0.0259,"KIAA1614_Q5VZ46_569_584 G7A (MERVLGALSSPLRLLP; UniProt Q5VZ46 569-584, looked up, variant G7A)"

# Same assay, conditions: PSSM, library USP8_DMS, days 2,3; position 15
enrichment_relative_to_wt at position 15 (wt L),proportion of amino acid at position 15 (wt L),Substance
-151,0.00642,"KIAA1614_Q5VZ46_569_584 L15V (MERVLGGLSSPLRLVP; UniProt Q5VZ46 569-584, looked up, variant L15V)"

# Same assay, conditions: ProP-PD DMS, bait USP8_Rhodanese__P40818_174_317; pair wild-type GMERVLGGLSSPLRLL (wt_00013) vs mutant; positive where wild-type fraction is higher, negative where mutant fraction is higher
row,hit_pair_ratio,Substance
1,160.99,GMERVLGGLSAPLRLL
2,80.49,GMERVLGGLSFPLRLL
3,-1.20,GMERVLGGLSSPLSLL
4,40.25,GMERVLGGLSSPLRLV
5,7.90,GMERVLGGLSSPMRLL
6,65.83,GMERVLGGLSSPFRLL
7,1.07,GMERVLGGLHSPLRLL
8,2.98,GMERVLGGLSTPLRLL
9,1.50,GMERVLGGLSSPLTLL
10,-9.56,GMERVLGGLSNPLRLL
11,21.15,GMERVLGGMSSPLRLL
12,160.99,GMERVLGGLSSPLRGL
13,4.34,GMERVLGGLSSPLRLI
14,-3.18,GMERVLGGLSSPLILL

# Same assay, conditions: ProP-PD pairs, bait USP8_Rhodanese__P40818_174_317; wild-type/mutant pair, wild type KIAA1614 569-584 GMERVLGGLSSPLRLL (wt_00013)
row,hit_pair_ratio,Substance
1,-1.35,GMERVLAGLSSPLRLL
2,29.56,GMERVGGGLSSPLRLL
3,1.49,WMERVLGGLSSPLRLL
4,321.97,GMERVLGTLSSPLRLL
5,321.97,GMFRVLGGLSSPLRLL
6,-2.19,GMERVLEGLSSPLRLL
7,-2.85,GMERNLGGLSSPLRLL
8,-1.02,GMERGLGGLSSPLRLL
9,2.20,GMERVLYGLSSPLRLL
10,32.20,GMLRVLGGLSSPLRLL
11,3.89,GMERVLIGLSSPLRLL
12,-1.21,GMERVLNGLSSPLRLL
13,-3.41,GNERVLGGLSSPLRLL
14,1.62,GMERVLGGASSPLRLL
15,-19.26,GMERVLGGDSSPLRLL
16,8.89,GMARVLGGLSSPLRLL

row,hit_pair_ratio,Substance
1,3.42,GMERVLLGLSSPLRLL
2,-3.47,GMERVLMGLSSPLRLL
3,321.97,GMERVNGGLSSPLRLL
4,321.97,GMERVLWGLSSPLRLL
5,-4.51,GIERVLGGLSSPLRLL
6,1.56,GFERVLGGLSSPLRLL
7,15.33,GMWRVLGGLSSPLRLL
8,131.67,GMERVLPGLSSPLRLL
9,10.06,YMERVLGGLSSPLRLL
10,6.31,GMERVLHGLSSPLRLL
11,4.20,GMERVLGGISSPLRLL
12,12.38,GMERVPGGLSSPLRLL
13,18.46,GMERVLRGLSSPLRLL
14,321.97,GMETVLGGLSSPLRLL
15,-5.86,GTERVLGGLSSPLRLL
16,21.46,GMPRVLGGLSSPLRLL

# Same assay, conditions: bait USP8_Rhodanese__P40818_174_317; wild-type/mutant pair ratio of averaged fractions; negative values where mutant fraction is higher
row,hit_pair_ratio,Substance
1,417.62,GLALWEAKMKQRAERA
2,1107.01,GLALWEAKMKQLAERF
3,12.23,GLALWEAKMKQLAEMA
4,1107.01,GLALWEAKMKQIAERA
5,-5.62,GLALWEAKMKQLAERD
6,417.62,GLALWEAKMMQLAERA
7,31.05,GLALWEAKMYQLAERA
8,553.50,GLALWEAKMKVLAERA
9,-3.11,GLALWEAKMAQLAERA
10,1.39,GLALWEAKMKSLAERA
11,133.35,GLALWEAKMKQLTERA
12,55.35,GLALWEAKMKYLAERA
13,13.05,GLALWEAKMKQLALRA
14,1.62,GLALWEAKMKQLAERS
15,417.62,GLALWEAKMKKLAERA
16,369.00,GLALWEAKMKQLIERA
17,-2.57,TMERVLGGLSSPLRLL
18,25.68,GLALWEAKMKQLAEHA
19,29.92,GLALWEAKMTQLAERA
20,1.69,GLALWEAKMKNLAERA
21,55.62,GLALWEAKMKQLAENA
22,-4.33,QMERVLGGLSSPLRLL
23,184.50,GLALWEAKMKQLDERA
24,-1.44,GLALWEAKMVQLAERA
25,1.77,GLALWEAKMKQLHERA
26,553.50,GLALWEAKMKQLAERR
27,-3.73,GLALWEAKMKQLAERP
28,29.55,GLALWEAKMKRLAERA
29,24.07,GLALWEAKMKQLAFRA
30,2.19,GLALWEAKMKQLQERA

# Same assay, conditions: wild type/mutant pair; bait USP8_Rhodanese__P40818_174_317; vs hit_library_peptide_wt GLALWEAKMKQLAERA; negative where mutant fraction exceeds wild type; ProP-PD pairs (sheet S7.B)
row,hit_pair_ratio,Substance
1,1107.01,GLFLWEAKMKQLAERA
2,417.62,GSALWEAKMKQLAERA
3,10.90,GLAQWEAKMKQLAERA
4,-4.35,GLDLWEAKMKQLAERA
5,52.20,GLAAWEAKMKQLAERA
6,61.66,GLALSEAKMKQLAERA
7,-13.35,GLELWEAKMKQLAERA
8,-2.03,GLAVWEAKMKQLAERA
9,1107.01,GLALWELKMKQLAERA
10,1107.01,GTALWEAKMKQLAERA
11,208.81,GLALWESKMKQLAERA
12,1107.01,GLALVEAKMKQLAERA
13,87.84,GLALWEPKMKQLAERA
14,151.61,GLALWEAKQKQLAERA
15,417.62,GLALWYAKMKQLAERA
16,1107.01,GLADWEAKMKQLAERA
17,51.13,GLALWDAKMKQLAERA
18,1107.01,GLALWEAEMKQLAERA
19,107.46,NLALWEAKMKQLAERA
